SMILES strings stand for the structures. Several values for one entry are separate records, joined by “and”; a condition that tells them apart may be missing. Identical values can stand only once. Like-named read-outs stand apart in the source and are kept apart here.

Test [1] has as its target T1, human KDR (VEGF-receptor-2) (Homo sapiens, UniProt P35968).
T1 construct: beginning at Met-806; (5′-ATG GAT CCA GAT GM CTC CCA TTG) and ending at Val-1356; made in house
The test can be described thus: KDR kinase enzyme assay wash-out experiments (irreversible inhibition). It is filed as biochemical. As to the method:
To determine if compounds bound irreversibly to enzyme, plates were washed after the enzyme plus compound pre-incubation step and prior to the addition of ATP. Parallel plates were tested wherein one plate was processed exactly as above while a second plate was washed three times in 100 μl of 4 mM HEPES, pH 7.4, to remove unbound compound. 1× Kinase buffer (30 μl of 1 mM MnCl2, 4 mM HEPES, pH 7.4, 20 μM Na3VO4) and 20 μl of ATP/MgCl2 were added to the wash-out plate. Detection of phosphotyrosinylated peptide for both plates was performed as described above.
For each inhibitor shown in Table 2, two IC50 determinations are shown, one under normal conditions and the other where an intermediate wash-out step is carried out. […] If there was a large increase in the IC50 value in the wash-out experiment compared to the experiment where there was no wash-out, then it was determined that the compound was behaving as a conventional reversible binding inhibitor.

Test [2] addresses KDR (Homo sapiens, UniProt P35968). The test can be described thus: cell-based. Particulars: for IC50: IC50 (nM), inhibition of KDR kinase autophosphorylation in KDR15 cells, KDR15 cells, VEGF 50 ng/ml, phospho-KDR-Y996 immunoblot; for inhibition at 1 µM: read-out: % Inhibition of KDR kinase autophosphorylation in KDR15 cells, compound conc. 1000 nM. Background: In western blotting, separated proteins are transferred to a membrane and probed.

The target in test [3] is T1, human KDR (VEGF-receptor-2). The test can be described thus: KDR kinase enzyme assay (DELFIA, KDR-IC-Flag, poly(Glu4-Tyr) peptide). It is filed as biochemical. The note with it: for inhibition at 0.1 µM: Concentration 100 nM; for inhibition at 0.1 µM / inhibition at 1 µM: read-out: % Inhibition; for inhibition at 1 µM: Concentration 1000 nM.
The test system of test [4] is Human umbilical vein endothelial cells (HUVEC). The test can be described thus: HUVEC proliferation assay, VEGF-dependent growth ([3H]-thymidine incorporation). It is filed as cell-based. Particulars: for inhibition at 10 µM / inhibition at 0.1 µM / inhibition at 1 µM: Homo sapiens, HUVEC; for inhibition at 0.1 µM: conc. 100 nM. How it is done: Cells were plated into 96-well dishes (4000 cells per well) and allowed to attach overnight. HUVEC were rinsed one time with 100 μl of EBMc-V (EBM supplemented with all above components except serum or VEGF), then 50 ul of EBMc-V was added to cells. Compounds were prepared at 200× stocks in DMSO, diluted into EBMc-V media as 4× stocks, then 50 ul added to appropriate wells. Finally, 100 μl of 2×VEGF (100 ng/ml prepared in EBMc-V; final 50 ng/ml VEGF) was added to all VEGF-treated wells. EBMc-V (no VEGF) was added to negative control wells. Parallel compound-treated plates were prepared except that 100 μl of EGM2 media containing 2% serum but lacking VEGF (EGMc-V) was added. Cells were incubated for 4-5 days at 37° C.
DNA synthesis was assessed by thymidine incorporation. Cells were incubated for 5 hours in 1 μCi of [^3H]-thymidine (PerkinElmer) by addition of 10 ul of 0.1 μCi/ul thymidine prepared in PBS to each well. After incubation, media was aspirated and the cells trypsinized and collected onto a mat using a vacuum-based Micro Cell Harvester (Skatron). [^3H]-thymidine was counted in a liquid scintillation counter. Compounds evaluated for ability to inhibit VEGF-dependent growth of human umbilical vein endothelial cells (HUVEC).
A general note: Uptake of a labelled nucleoside into DNA is a usual measure of proliferation.

T1 sequence (P35968 806-1356): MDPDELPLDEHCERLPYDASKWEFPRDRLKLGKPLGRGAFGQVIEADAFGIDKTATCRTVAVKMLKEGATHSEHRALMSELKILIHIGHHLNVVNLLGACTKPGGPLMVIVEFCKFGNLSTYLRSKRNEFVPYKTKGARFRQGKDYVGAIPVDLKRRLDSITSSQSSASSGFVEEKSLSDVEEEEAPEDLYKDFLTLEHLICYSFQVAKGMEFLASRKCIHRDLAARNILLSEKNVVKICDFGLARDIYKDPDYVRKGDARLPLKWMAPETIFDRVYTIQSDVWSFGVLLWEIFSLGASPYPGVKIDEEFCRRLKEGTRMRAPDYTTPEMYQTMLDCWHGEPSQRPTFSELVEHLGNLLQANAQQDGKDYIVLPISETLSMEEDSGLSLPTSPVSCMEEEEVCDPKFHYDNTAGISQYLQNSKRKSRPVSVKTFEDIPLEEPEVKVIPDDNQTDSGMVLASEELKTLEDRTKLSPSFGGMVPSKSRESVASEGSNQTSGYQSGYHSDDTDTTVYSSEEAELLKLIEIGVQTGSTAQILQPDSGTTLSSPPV
Chain of KDR (P35968 20-1356): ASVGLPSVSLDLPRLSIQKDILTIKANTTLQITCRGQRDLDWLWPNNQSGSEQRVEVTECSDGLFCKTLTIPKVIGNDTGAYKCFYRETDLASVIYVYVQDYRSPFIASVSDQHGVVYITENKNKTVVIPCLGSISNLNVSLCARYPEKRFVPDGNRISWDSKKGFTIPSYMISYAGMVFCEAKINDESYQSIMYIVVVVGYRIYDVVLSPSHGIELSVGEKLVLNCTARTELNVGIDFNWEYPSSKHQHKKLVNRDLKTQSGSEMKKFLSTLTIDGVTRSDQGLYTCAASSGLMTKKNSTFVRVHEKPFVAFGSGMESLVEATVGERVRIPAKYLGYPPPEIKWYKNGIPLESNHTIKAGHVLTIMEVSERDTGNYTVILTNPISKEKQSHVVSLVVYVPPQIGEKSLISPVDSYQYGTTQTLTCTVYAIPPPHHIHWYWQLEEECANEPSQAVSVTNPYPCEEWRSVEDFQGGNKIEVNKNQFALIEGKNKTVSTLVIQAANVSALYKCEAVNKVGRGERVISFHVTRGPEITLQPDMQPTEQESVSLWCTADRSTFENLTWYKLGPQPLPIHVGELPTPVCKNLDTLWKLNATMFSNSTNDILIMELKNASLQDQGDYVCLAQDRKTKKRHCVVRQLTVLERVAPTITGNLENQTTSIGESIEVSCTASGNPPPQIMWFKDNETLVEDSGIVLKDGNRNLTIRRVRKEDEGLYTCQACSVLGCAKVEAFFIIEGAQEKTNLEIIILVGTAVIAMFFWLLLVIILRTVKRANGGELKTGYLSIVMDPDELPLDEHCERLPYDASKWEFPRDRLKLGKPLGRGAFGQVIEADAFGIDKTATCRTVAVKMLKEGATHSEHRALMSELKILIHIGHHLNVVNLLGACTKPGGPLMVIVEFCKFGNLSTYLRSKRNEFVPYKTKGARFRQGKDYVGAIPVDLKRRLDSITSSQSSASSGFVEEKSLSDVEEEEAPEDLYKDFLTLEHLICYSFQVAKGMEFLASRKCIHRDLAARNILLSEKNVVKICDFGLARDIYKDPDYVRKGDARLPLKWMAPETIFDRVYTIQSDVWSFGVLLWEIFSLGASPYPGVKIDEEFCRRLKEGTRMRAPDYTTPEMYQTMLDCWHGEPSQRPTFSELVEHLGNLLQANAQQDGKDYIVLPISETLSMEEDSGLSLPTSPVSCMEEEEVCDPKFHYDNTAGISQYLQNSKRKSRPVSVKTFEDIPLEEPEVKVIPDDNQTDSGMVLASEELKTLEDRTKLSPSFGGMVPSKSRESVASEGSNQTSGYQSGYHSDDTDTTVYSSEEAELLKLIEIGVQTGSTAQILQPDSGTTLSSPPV

In general, IC50 refers to the concentration that gives 50% inhibition. Higher therefore signals a need for much substance. In the case of `COCCOc1cc2ncnc(NC3=CC(=O)C(OCCN(C)c4ccccc4)=CC3=O)c2cc1OC` [Example 222, 2-{[6-methoxy-7-(2-methoxyethoxy)quinazolin-4-yl]amino}-5-{2-[methyl(phenyl)amino]ethoxy}benzo-1,4-quinone], the IC50 is 78.6 nM in test [1] (no wash), 128 nM in test [1] (wash out) and 175 to 210 nM in test [2].
A word on the inhibition: it is the drop in the measured response relative to a control, in per cent. As for `CCC1=CC(=O)C(Nc2ncnc3cc(OC)c(OC)cc23)=CC1=O` [Example 8, 2-[(6,7-dimethoxy-4-quinazolinyl)amino]-5-ethylbenzo-1,4-quinone], the IC50 in test [3] (ATP conc. 10 μM) is 175 nM and 177 nM; in test [3] (ATP conc. 100 μM) it was 200 nM; in test [3] (ATP conc. 1000 μM), 239 nM; in test [2], 172 nM. For the same compound, the inhibition at 0.1 µM in test [3] (ATP conc. 10 μM) amounted to 51%. The inhibition at 1 µM in test [3] (ATP conc. 10 μM) was 82%; in test [3] (ATP conc. 1000 μM), 80%. For the same compound, the inhibition at 10 µM in test [4] (conc. 10000 nM) is 87%. The “% Inhibition of VEGF-dependent growth of HUVEC” value in test [4] (conc. 1000 nM) is 30% and 51% and 37%; in test [4] (conc. 10000 nM), 98% and 89%. In addition, the inhibition at 0.5 µM in test [2] (read-out: % Inhibition of KDR kinase autophosphorylation in KDR15 cells, compound conc. 500 nM) came to 25%.
On to `COCCOc1cc2ncnc(NC3=CC(=O)C(Oc4ccc5c(c4)[nH]c4ccccc45)=CC3=O)c2cc1OC` [Example 41, 2-(9H-carbazol-2-yloxy)-5-{[6-methoxy-7-(2-methoxyethoxy)quinazolin-4-yl]amino}benzo-1,4-quinone], for which 2 nM corresponded to half-maximal inhibition in test [3] (ATP conc. 10 μM) (IC50). In addition, the inhibition at 0.1 µM in test [3] (ATP conc. 10 μM) is 92%; in test [4] it was -5%. The figures for the inhibition at 1 µM in test [3] (ATP conc. 10 μM), in test [4] (conc. 1000 nM) and in test [2] were 92%, 42% and 120%, respectively. Further, the inhibition at 10 µM in test [4] (conc. 10000 nM) worked out at 98%.
Consider `COCCOc1cc2ncc(C#N)c(NC3=CC(=O)C(Oc4ccc(-n5ccnc5)cc4)=CC3=O)c2cc1OC` [Example 72, 4-({4-[4-(1H-imidazol-1-yl)phenoxy]-3,6-dioxocyclohexa-1,4-dien-1-yl}amino)-6-methoxy-7-(2-methoxyethoxy)quinoline-3-carbonitrile], for which the IC50 is 53.7 nM and 72.4 nM in test [3] (ATP conc. 10 μM); 53.7 nM in test [1] (no wash); 73.7 nM in test [1] (wash out). Besides, the inhibition at 0.1 µM in test [3] (ATP conc. 10 μM) came to 73%. Also, the inhibition at 1 µM was 93% in test [3] (ATP conc. 10 μM) and 94% in test [3] (ATP conc. 1000 μM).
For the compound `COCCOc1cc2ncnc(NC3=CC(=O)C(OCC4CC4)=CC3=O)c2cc1OC` [Example 213, 2-(cyclopropylmethoxy)-5-{[6-methoxy-7-(2-methoxyethoxy)quinazolin-4-yl]amino}benzo-1,4-quinone], the IC50 is 4.7 nM in test [1] (no wash), 16.9 nM in test [1] (wash out) and 236 to 400 nM in test [2].
Compound `COCCOc1cc2ncnc(NC3=CC(=O)C(Oc4ccc(C(=O)c5ccccc5)cc4)=CC3=O)c2cc1OC` [Example 39, 2-(4-benzoylphenoxy)-5-{[6-methoxy-7-(2-methoxyethoxy)quinazolin-4-yl]amino}benzo-1,4-quinone] returned an IC50 in test [3] (ATP conc. 10 μM) of 3.5 nM. Also, the inhibition at 0.1 µM was 91% in test [3] (ATP conc. 10 μM) and 18% in test [4]. For the same compound, the inhibition at 1 µM in test [3] (ATP conc. 10 μM) is 94%; in test [4] (conc. 1000 nM), 58%; in test [2] it was 140%. Further, the inhibition at 10 µM in test [4] (conc. 10000 nM) came to 99%.
`COCCOc1cc2ncnc(NC3=CC(=O)C(Sc4nccs4)=C(OC)C3=O)c2cc1OC` [Example 20]: the figures for the IC50 in test [3] (ATP conc. 10 μM), in test [1] (no wash) and in test [1] (wash out) were 17.9 nM, 17.9 nM and 33.1 nM, respectively. Moreover, the inhibition at 0.1 µM in test [3] (ATP conc. 10 μM) worked out at 92%. Also, the inhibition at 1 µM in test [3] (ATP conc. 10 μM) was 90%; in test [3] (ATP conc. 1000 μM), 97%.

The record behind these values is patent US20070299092A1 (Wyeth, priority 2004, published 2007).
